*1 amine or outer side, *2 acyl side, *3 side chain or, on linkers, in order; H or OH if unused. Where a SMILES comes first, the peptide text is derived from it. Bridges are numbered along the chain shown (N, C = ends). [ ]: non-standard residue; d: D form. The star is where a group is joined. NMeNva(5-imidazol-1-yl) = CN[C@@H](CCCn1ccnc1)C(=O)O; Phe(4-guanidino) = N=C(N)Nc1ccc(C[C@H](N)C(=O)O)cc1; X55 = O=C([C@H](Cc1coc(-c2ccccc2)n1)N[*:1])[*:2]; Ala(pyrimidin-5-yl) = N[C@@H](Cc1cncnc1)C(=O)O; NMeArg(Me) = CNC(=N)NCCC[C@H](NC)C(=O)O; X2 = O=C([C@H](Cc1ccccc1F)O[*:1])[*:2]; Phe(2-F) = N[C@@H](Cc1ccccc1F)C(=O)O; NMe3Pal = CN[C@@H](Cc1cccnc1)C(=O)O; NMeY = CN[C@@H](Cc1ccc(O)cc1)C(=O)O; X1 = O=C(C12CC(CN[*:1])(C1)C2)[*:2]; X56 = O=C(C12CC(N[*:1])(C1)C2)[*:2]; X53 = C[C@@H](CSCC(=O)[*:2])N[*:1]; NMeR = CN[C@@H](CCCNC(=N)N)C(=O)O; NMeF = CN[C@@H](Cc1ccccc1)C(=O)O; PhLac = O=C(O)[C@@H](O)Cc1ccccc1; 3Pal = N[C@@H](Cc1cccnc1)C(=O)O; d3Pal = N[C@H](Cc1cccnc1)C(=O)O; Ahp(2) = CCCCC[C@H](N)C(=O)O; Cba = N[C@@H](CC1CCC1)C(=O)O; NMeNle = CCCC[C@H](NC)C(=O)O; αMeC = C[C@](N)(CS)C(=O)O; NMeA = CN[C@@H](C)C(=O)O; Nle = CCCC[C@H](N)C(=O)O; CHF2 = FC(F)*
Target: KRAS-G12D protein (Homo sapiens, UniProt P01116, G12D)
Sequence (P01116 1-188 isoform P01116-2 G12D): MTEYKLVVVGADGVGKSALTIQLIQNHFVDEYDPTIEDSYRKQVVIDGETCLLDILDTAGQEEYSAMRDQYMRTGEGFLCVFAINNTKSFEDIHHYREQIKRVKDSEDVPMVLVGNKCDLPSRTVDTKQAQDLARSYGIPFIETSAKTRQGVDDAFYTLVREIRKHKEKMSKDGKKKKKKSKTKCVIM
Assay: SOS-mediated nucleotide exchange assay (BODIPY-GDP / Tb-streptavidin TR-FRET)
Assay type: biochemical

Row | Structure (SMILES) | EC50
1 | CCCCC[C@@H]1NC(=O)[C@H](Cc2ccc(OC)cc2)NC(=O)[C@H](CC2CCC2)NC(=O)[C@H](Cc2ccc(NC(=N)N)cc2)NC(=O)[C@H](CCCNC(=N)NC)N(C)C(=O)[C@H](Cc2ccccc2)NC(=O)CSC[C@@](C)(C(N)=O)NC(=O)[C@H](Cc2ccccc2)N(C)C1=O [compound 380, cyclo(F-NMeArgMe-Phe4Gn-cBuA-TyrOMe-Abp-NMeF-aMeCl-ClAc)] ({CH2CO}-F[NMeArg(Me)][Phe(4-guanidino)][Cba]Y(Me)[Ahp(2)][NMeF][αMeC]-NH2; thioether N-8) | 1.68 nM
2 | CCCC[C@@H]1NC(=O)[C@H](Cc2ccccc2F)NC(=O)[C@H](CC2CCC2)NC(=O)[C@@H](Cc2cccnc2)NC(=O)[C@H](CCCNC(=N)N)NC(=O)[C@H](Cc2ccccc2)NC(=O)C23CC(C2)(C3)NC(=O)[C@H](Cc2cccnc2)N(C)C1=O [compound 108, cyclo(F-R-d3Pal-cBuA-Phe2F-Nle-NMe3Pal-BCP)] (cyclo(FR[d3Pal][Cba][Phe(2-F)][Nle][NMe3Pal][X56])) | 1140 nM
3 | CCCC[C@@H]1NC(=O)[C@H](Cc2ccccc2)NC(=O)[C@H](C)N(C)C(=O)[C@H](Cc2ccccc2)OC(=O)C23CC(CNC(=O)[C@H](Cc4ccccc4)N(C)C(=O)[C@H](CCCC)NC(=O)[C@H](Cc4ccccc4F)NC1=O)(C2)C3 [compound 305, cyclo(FLac-NMeA-F-Nle-Phe2F-Nle-NMeF-amBCP)] (cyclo(F[Nle][Phe(2-F)][Nle][NMeF][X1][PhLac][NMeA])) | 1790 nM
4 | CCCC[C@@H]1NC(=O)[C@H](Cc2ccc(OC)cc2)NC(=O)[C@H](CC2CCC2)NC(=O)[C@@H](Cc2cccnc2)NC(=O)[C@H](CCCNC(=N)N)NC(=O)[C@H](Cc2ccccc2)NC(=O)CSC[C@H](C)NC(=O)[C@H](Cc2ccccc2)N(C)C1=O [compound 180, cyclo(F-R-d3Pal-cBuA-TyrOMe-Nle-NMeF-Smcysteamine-ClAc)] (cyclo([Cba]Y(Me)[Nle][NMeF][X53]FR[d3Pal])) | 37.8 nM
5 | CCCC[C@@H]1NC(=O)[C@H](Cc2ccccc2F)NC(=O)[C@H](CC(C)C)NC(=O)[C@H](Cc2cncnc2)NC(=O)[C@H](C)N(C)C(=O)[C@H](Cc2ccccc2)OC(=O)C23CC(CNC(=O)[C@H](Cc4cccnc4)N(C)C1=O)(C2)C3 [compound 129, cyclo(FLac-NMeA-PyrimAla-L-Phe2F-Nle-NMe3Pal-amBCP)] (cyclo([PhLac][NMeA][Ala(pyrimidin-5-yl)]L[Phe(2-F)][Nle][NMe3Pal][X1])) | 4.38 nM
6 | CCCC[C@@H]1NC(=O)[C@H](Cc2cccnc2)NC(=O)[C@H](CCCNC(=N)N)NC(=O)[C@H](Cc2ccccc2)NC(=O)CSC[C@@](C)(C(N)=O)NC(=O)[C@H](Cc2ccccc2)N(C)C(=O)[C@H](CCCC)NC(=O)[C@H](Cc2ccccc2F)NC1=O [compound 160, cyclo(F-R-3Pal-Nle-Phe2F-Nle-NMeF-aMeCl-ClAc)] ({CH2CO}-FR[3Pal][Nle][Phe(2-F)][Nle][NMeF][αMeC]-NH2; thioether N-8) | 12.8 nM
7 | CCCC[C@@H]1NC(=O)[C@H](CCCCN)NC(=O)[C@H](CCCNC(=N)N)NC(=O)[C@H](C(c2ccccc2)c2ccccc2)NC(=O)CSC[C@H](C(N)=O)NC(=O)[C@H](Cc2ccccc2)N(C)C(=O)[C@H](CCCC)NC(=O)[C@H](Cc2ccc(O)cc2)NC1=O [compound 149, cyclo(Dip-R-K-Nle-Y-Nle-NMeF-dCl-ClAc)] | 1030 nM
8 | CCCC[C@@H]1NC(=O)[C@H](Cc2cncnc2)NC(=O)[C@H](C)N(C)C(=O)[C@H](Cc2ccccc2)OC(=O)C23CC(CNC(=O)[C@H](Cc4ccc(OC)cc4)N(C)C(=O)[C@H](CCCC)NC(=O)[C@H](Cc4ccccc4F)NC1=O)(C2)C3 [compound 175, cyclo(FLac-NMeA-PyrimAla-Nle-Phe2F-Nle-NMeYOMe-amBCP)] (cyclo([NMeA][Ala(pyrimidin-5-yl)][Nle][Phe(2-F)][Nle][NMeY](Me)[X1][PhLac])) | 11 nM
9 | CCCC[C@@H]1NC(=O)[C@H](Cc2coc(-c3ccccc3)n2)NC(=O)[C@H](C)N(C)C(=O)[C@H](Cc2ccccc2)OC(=O)C23CC(CNC(=O)[C@H](Cc4ccccc4)N(C)C(=O)[C@H](CCCC)NC(=O)[C@H](Cc4ccccc4F)NC1=O)(C2)C3 [compound 307, cyclo(FLac-NMcA-AlaOxz2Ph-Nle-Phe2F-Nle-NMeF-amBCP)] (cyclo([NMeA][X55][Nle][Phe(2-F)][Nle][NMeF][X1][PhLac])) | 155 nM
10 | CCCCC[C@@H]1NC(=O)[C@H](Cc2ccc(OC)cc2)NC(=O)[C@H](CC2CCC2)NC(=O)[C@H](Cc2ccc(N3CCC[C@H]3CN)cc2)NC(=O)[C@H](CCCNC(=N)N)NC(=O)[C@H](Cc2ccccc2)NC(=O)CSC[C@@](C)(C(N)=O)NC(=O)[C@H](Cc2ccccc2)N(C)C1=O [compound 392, cyclo(F-R-Phe4SamPyrr-cBuA-TyrOMe-Ahp-NMeF-aMeCl-ClAc)] | 8.59 nM
11 | CCCC[C@@H]1NC(=O)[C@H](Cc2ccc(OC(F)F)cc2)NC(=O)[C@H](C)N(C)C(=O)[C@H](Cc2ccccc2)OC(=O)C23CC(CNC(=O)[C@H](Cc4ccccc4)N(C)C(=O)[C@H](CCCC)NC(=O)[C@H](Cc4ccccc4F)NC1=O)(C2)C3 [compound 312, cyclo(FLac-NMeA-TyrOCF2-Nle-Phe2F-Nle-NMeF-amBCP)] (cyclo([NMeA]Y(CHF2)[Nle][Phe(2-F)][Nle][NMeF][X1][PhLac])) | 966 nM
12 | CCCC[C@@H]1NC(=O)[C@H](Cc2ccccc2F)NC(=O)[C@H](CCCC)N(C)C(=O)[C@@H](Cc2cccnc2)NC(=O)[C@H](CCCNC(=N)N)N(C)C(=O)[C@H](Cc2ccccc2)NC(=O)C23CC(CNC(=O)[C@H](Cc4cccnc4)N(C)C1=O)(C2)C3 [compound 109, cyclo(F-NMeR-d3Pal-NMeNle-Phe2F-Nle-NMe3Pal-amBCP)] (cyclo(F[NMeR][d3Pal][NMeNle][Phe(2-F)][Nle][NMe3Pal][X1])) | 1200 nM
13 | CCCC[C@@H]1NC(=O)[C@H](Cc2cncnc2)NC(=O)[C@H](CCCn2ccnc2)N(C)C(=O)[C@H](Cc2ccccc2)OC(=O)C23CC(CNC(=O)[C@H](Cc4cccnc4)N(C)C(=O)[C@H](CCCC)NC(=O)[C@H](Cc4ccccc4F)OC1=O)(C2)C3 [compound 246, cyclo(FLac-NMeNvalmid-PyrimAla-Nle-F2FLac-Nle-NMe3Pal-amBCP)] (cyclo([NMe3Pal][X1][PhLac][NMeNva(5-imidazol-1-yl)][Ala(pyrimidin-5-yl)][Nle][X2][Nle])) | 1160 nM

Source: patent publication US20260001914A1, “MACROCYCLIC PEPTIDES TARGETING KRAS” (Merck Sharp & Dohme LLC, priority 2022, published 2026)
